Data on 24 compounds can be found in patent US20050197350A1, “Novel quinoline, tetrahydroquinazoline, and pyrimidine derivatives and methods of treatment related to the use thereof” (TAISHO PHARMACEUTICAL CO., LTD., priority 2003, published 2005).

This experiment relates to MCH receptors. Kind of experiment: MCH receptor activity class (method not given). As to conditions: MCH receptor; class by percent of control at 10^-7 M or IC50.

As to `CN(C)c1cc(N[C@H]2CC[C@@H](NC(=O)c3ccc(Cl)c([N+](=O)[O-])c3)CC2)nc2ccccc12` [compound 27, 4-chloro-N-(cis-4-{[4-(dimethylamino)quinolin-2-yl]amino}cyclohexyl)-3-nitrobenzamide], the class is 1 (Class 1: The value of percent of control at 10^−7 M was less than 40% or the value of IC50 was less than 50 nM.).

Turning to `CN(C)c1cc(N[C@H]2CC[C@@H](NC(=O)Cc3ccc(Cl)cc3)CC2)nc2ccccc12` [compound 28], the class was 3 (Class 3 The value of percent of control at 10^−7 M was more than 60% or the value of IC50 was more than 200 nM.).

Take `CN(C)c1cc(N[C@H]2CC[C@@H](NC(=O)c3cccc(C#N)c3)CC2)nc2ccccc12` [compound 29]: the class is 2 (Class 2: The value of percent of control at 10^−7 M was from 40% to 60% or the value of IC′50 was from 50 nM to 200 nM.).

In the case of `CN(C)c1cc(N[C@H]2CC[C@@H](NC(=O)c3cc(Cl)cc(Cl)c3)CC2)nc2ccccc12` [compound 30], the class was 2 (Class 2: The value of percent of control at 10^−7 M was from 40% to 60% or the value of IC′50 was from 50 nM to 200 nM.).

Take `CN(C)c1cc(N[C@H]2CC[C@@H](NC(=O)c3ccc(Cl)c(Cl)c3)CC2)nc2ccccc12` [compound 31]: the class is recorded as 1 (Class 1: The value of percent of control at 10^−7 M was less than 40% or the value of IC50 was less than 50 nM.).

Consider `CN(C)c1cc(N[C@H]2CC[C@@H](NC(=O)C(c3ccccc3)c3ccccc3)CC2)nc2ccccc12` [compound 32, N-(cis-4-{[4-(dimethylamino)quinolin-2-yl]amino}cyclohexyl)-2,2-diphenylacetamide], for which the class is recorded as 2 (Class 2: The value of percent of control at 10^−7 M was from 40% to 60% or the value of IC′50 was from 50 nM to 200 nM.).

Take `CN(C)c1cc(N[C@H]2CC[C@@H](NC(=O)c3ccc(F)c(F)c3)CC2)nc2ccccc12` [compound 33, N-(cis-4-{[4-(dimethylamino)quinolin-2-yl]amino}cyclohexyl)-3,4-difluorobenzamide]: the class was 1 (Class 1: The value of percent of control at 10^−7 M was less than 40% or the value of IC50 was less than 50 nM.).

In the case of `CN(C)c1cc(N[C@H]2CC[C@@H](NC(=O)c3cc(F)cc(F)c3)CC2)nc2ccccc12` [compound 34, N-(cis-4-{[4-(dimethylamino)quinolin-2-yl]amino}cyclohexyl)-3,5-difluorobenzamide], the class is given as 2 (Class 2: The value of percent of control at 10^−7 M was from 40% to 60% or the value of IC′50 was from 50 nM to 200 nM.).

With `COc1ccc(OC)c(CC(=O)N[C@H]2CC[C@@H](Nc3cc(N(C)C)c4ccccc4n3)CC2)c1` [compound 35], the class was 3 (Class 3 The value of percent of control at 10^−7 M was more than 60% or the value of IC50 was more than 200 nM.).

`CCSc1ncccc1C(=O)N[C@H]1CC[C@@H](Nc2cc(N(C)C)c3ccccc3n2)CC1` [compound 36]: the class is given as 3 (Class 3 The value of percent of control at 10^−7 M was more than 60% or the value of IC50 was more than 200 nM.).

Take `CN(C)c1cc(N[C@H]2CC[C@@H](NC(=O)c3ccc(F)cc3)CC2)nc2ccccc12` [compound 37, N-(cis-4-{[4-(dimethylamino)quinolin-2-yl]amino}cyclohexyl)-4-fluorobenzamide]: the class is given as 1 (Class 1: The value of percent of control at 10^−7 M was less than 40% or the value of IC50 was less than 50 nM.).

For the compound `CN(C)c1cc(N[C@H]2CC[C@@H](NC(=O)c3cc(F)cc(C(F)(F)F)c3)CC2)nc2ccccc12` [compound 38, N-(cis-4-{[4-(dimethylamino)quinolin-2-yl]amino}cyclohexyl)-3-fluoro-5-(trifluoromethyl)benzamide], the class was 2 (Class 2: The value of percent of control at 10^−7 M was from 40% to 60% or the value of IC′50 was from 50 nM to 200 nM.).

`CN(C)c1cc(N[C@H]2CC[C@@H](NC(=O)c3cc(F)c(Cl)cc3Cl)CC2)nc2ccccc12` [compound 39]: the class is 3 (Class 3 The value of percent of control at 10^−7 M was more than 60% or the value of IC50 was more than 200 nM.).

For `CCCCCC(=O)N[C@H]1CC[C@@H](Nc2cc(N(C)C)c3ccccc3n2)CC1` [compound 40], the class is reported as 3 (Class 3 The value of percent of control at 10^−7 M was more than 60% or the value of IC50 was more than 200 nM.).

Consider `CN(C)c1cc(N[C@H]2CC[C@@H](NC(=O)c3ccc(I)cc3)CC2)nc2ccccc12` [compound 41], for which the class is reported as 3 (Class 3 The value of percent of control at 10^−7 M was more than 60% or the value of IC50 was more than 200 nM.).

As for `CSc1ncccc1C(=O)N[C@H]1CC[C@@H](Nc2cc(N(C)C)c3ccccc3n2)CC1` [compound 42], the class is 3 (Class 3 The value of percent of control at 10^−7 M was more than 60% or the value of IC50 was more than 200 nM.).

`Cc1ccc(C(=O)N[C@H]2CC[C@@H](Nc3cc(N(C)C)c4ccccc4n3)CC2)cc1[N+](=O)[O-]` [compound 43, N-(cis-4-{[4-(dimethylamino)quinolin-2-yl]amino}cyclohexyl)-4-methyl-3-nitrobenzamide]: the class is reported as 2 (Class 2: The value of percent of control at 10^−7 M was from 40% to 60% or the value of IC′50 was from 50 nM to 200 nM.).

As for `CN(C)c1cc(N[C@H]2CC[C@@H](NC(=O)c3cccc([N+](=O)[O-])c3)CC2)nc2ccccc12` [compound 44, N-(cis-4-{[4-(dimethylamino)quinolin-2-yl]amino}cyclohexyl)-3-nitrobenzamide], the class is 1 (Class 1: The value of percent of control at 10^−7 M was less than 40% or the value of IC50 was less than 50 nM.).

Regarding `CN(C)c1cc(N[C@H]2CC[C@@H](NC(=O)Cc3ccccc3)CC2)nc2ccccc12` [compound 45, N-(cis-4-{[4-(dimethylamino)quinolin-2-yl]amino}cyclohexyl)-2-phenlacetamide], the class is given as 3 (Class 3 The value of percent of control at 10^−7 M was more than 60% or the value of IC50 was more than 200 nM.).

As to `CN(C)c1cc(N[C@H]2CC[C@@H](NC(=O)C3C[C@H]3c3ccccc3)CC2)nc2ccccc12` (stereo partly drawn) [compound 46], the class was 3 (Class 3 The value of percent of control at 10^−7 M was more than 60% or the value of IC50 was more than 200 nM.).

Turning to `CN(C)c1cc(N[C@H]2CC[C@@H](NC(=O)c3ccc4c(c3)OCO4)CC2)nc2ccccc12` [compound 47], the class is listed as 3 (Class 3 The value of percent of control at 10^−7 M was more than 60% or the value of IC50 was more than 200 nM.).

In the case of `Cc1cccc(C(=O)N[C@H]2CC[C@@H](Nc3cc(N(C)C)c4ccccc4n3)CC2)c1` [compound 50, N-(cis-4-{[4-(dimethylamino)quinolin-2-yl]amino}cyclohexyl)-3-methylbenzamide], the class was 1 (Class 1: The value of percent of control at 10^−7 M was less than 40% or the value of IC50 was less than 50 nM.).

Take `Cc1ccc(C(=O)N[C@H]2CC[C@@H](Nc3cc(N(C)C)c4ccccc4n3)CC2)cc1` [compound 51]: the class is listed as 3 (Class 3 The value of percent of control at 10^−7 M was more than 60% or the value of IC50 was more than 200 nM.).

For the compound `CN(C)c1cc(N[C@H]2CC[C@@H](NC(=O)c3cccs3)CC2)nc2ccccc12` [compound 52], the class is given as 3 (Class 3 The value of percent of control at 10^−7 M was more than 60% or the value of IC50 was more than 200 nM.).
